d = 2'-deoxy (DNA); r = 2'-OH (RNA)
Assays:
Luc+ expression [1] = assay: Dual luciferase (pGL3 control + pRL-SV40) co-injected with siRNA, increased-pressure tail vein injection, organs assayed; format: in vivo, mice; conditions: one day; for inhibition of target Luc+ expression (Luc+/Renilla Luc ratio): liver, normalized to no siRNA control
Method: Inhibition of Luciferase expression by siRNA is gene specific in liver in vivo. Two plasmids were injected simultaneously either with or without siRNA-luc+ as described in Example 1. The first plasmid, pGL3 control (Promega Corp, Madison, Wis.), contains the luc+ coding region and a chimeric intron under transcriptional control of the simian virus 40 enhancer and early promoter region. The second, pRL-SV40, contains the coding region for the Renilla reniformis luciferase under transcriptional control of the Simian virus 40 enhancer and early promoter region.
10 μg pGL3 control and 1 μg pRL-SV40 was injected as described in Example 1 with 0, 0.5 or 5.0 μg siRNA-luc+. One day after injection, the livers were harvested and homogenized as described in Example 1. Luc+ and Renilla Luc activities were assayed using the Dual Luciferase Reporter Assay System (Promega).
Inhibition of Luciferase expression by siRNA is gene specific and siRNA specific in liver in vivo. 10 μg pGL3 control and 1 μg pRL-SV40 were injected as described in Example 1 with either 5.0 μg siRNA-luc+ or 5.0 control siRNA-ori. One day after injection, the livers were harvested and homogenized as described in Example 1. Luc+ and Renilla Luc activities were assayed using the Dual Luciferase Reporter Assay System (Promega). Ratios of Luc+ to Renilla Luc were normalized to the siRNA-ori control. siRNA-Luc+ inhibited Luc+ expression in liver by 93% compared to siRNA-ori indicating inhibition by siRNAs is sequence specific in this organ.
In vivo delivery of siRNA by increased-pressure intravascular injection results in strong inhibition of target gene expression in a variety of organs. 10 μg pGL3 Control and 1 μg pRL-SV40 were co-injected with 5 μg siRNA-Luc+ or 5 μg control siRNA (siRNA-ori) targeted to sequence in the plasmid backbone as in example 1. One day after injection, organs were harvested and homogenized and the extracts assayed for target firefly luciferase+ activity and control Renilla luciferase activity. Firefly luciferase+activity was normalized to that Renilla luciferase activity in order to compensate for differences in transfection efficiency between animals.

Luc+ expression [2] = assay: Dual luciferase in muscle after iliac artery delivery of plasmids and siRNA; format: in vivo, rats; conditions: 5.0 μg siRNA, four days, compared to control siRNA-ori
Method: Inhibition of Luciferase expression by siRNA is gene specific and siRNA specific in muscle in vivo after arterial delivery. 10 μg pGL3 control and 1 μg pRL-SV40 with 5.0 μg siRNA-luc+ or 5.0 siRNA-ori were injected into iliac artery of rats under increased pressure. Specifically, animals were anesthetized and the surgical field shaved and prepped with an antiseptic. The animals were placed on a heating pad to prevent loss of body heat during the surgical procedure. A midline abdominal incision will be made after which skin flaps were folded away and held with clamps to expose the target area. A moist gauze was applied to prevent excessive drying of internal organs. Intestines were moved to visualize the iliac veins and arteries. Microvessel clips were placed on the external iliac, caudal epigastric, internal iliac, deferent duct, and gluteal arteries and veins to block both outflow and inflow of the blood to the leg. An efflux enhancer solution (e.g., 0.5 mg papaverine in 3 ml saline) was injected into the external iliac artery though a 25 g needle, followed by the plasmid DNA and siRNA containing solution (in 10 ml saline) 1-10 minutes later. The solution was injected in approximately 10 seconds. The microvessel clips were removed 2 minutes after the injection and bleeding was controlled with pressure and gel foam. The abdominal muscles and skin were closed with 4-0 dexon suture. […]

luc+ gene = assay: Inhibition of luciferase gene expression by siRNA in liver cells in vivo (pMIR48 co-injected, tail vein); parameters: species or system ICR mice; conditions: liver one day after injection
Method: Plasmid pMIR48 (10 μg), containing the luc+ coding region (Promega Corp.) and a chimeric intron downstream of the cytomegalovirus major immediate-early enhancer/promoter, was mixed with 0.5 or 5 μg siRNA-luc+, diluted in 1-3 ml Ringer's solution (147 mM NaCl, 4 mM KCl, 1.13 mM CaCl2) and injected into the tail vein of ICR mice over […]. One day after injection, the livers were harvested and homogenized in lysis buffer (0.1% Triton X-100, 0.1 M K-phosphate, 1 mM DTT, pH 7.8). Insoluble material was cleared by centrifugation. 10 μl of the cellular extract or extract diluted 10× was analyzed for luciferase activity using the Enhanced Luciferase Assay kit (Mirus).

Luc+ expression [3] = assay: Dual luciferase in liver after bile duct delivery of plasmids and siRNA; format: in vivo, mice; conditions: 5.0 μg siRNA, bile duct injection, one day, compared to control siRNA-ori
Method: Inhibition of Luciferase expression by siRNA is gene specific and siRNA specific in liver after bile duct delivery in vivo. 10 μg pGL3 control and 1 μg pRL-SV40 with 5.0 μg siRNA-luc+ or 5.0 siRNA-ori were injected into the bile duct of mice. A total volume of 1 ml in Ringer's buffer was delivered at 6 ml/min. […] One day after injection, the liver was harvested and homogenized as described in Example 1. Luc+ and Renilla Luc activities were assayed using the Dual Luciferase Reporter Assay System (Promega). Ratios of Luc+ to Renilla Luc were normalized to the siRNA-ori control. siRNA-Luc+ inhibited Luc+ expression in liver by 88% compared to the control siRNA-ori.

[4] = Example 4: 5 μg siRNA, compared to control siRNA-ori

For “siRNA-luc+: annealed oligomers SEQ ID 4 and SEQ ID 5 containing luc+ coding sequence, positions 155-173 of the luc+ reading frame (chain 1 CUUACGCUGAGUACUUCGATT; chain 2 UCGAAGUACUCAGCGUAAGTT; sugars from the 5' end r19 d2, backbone not given here; listed as Photinus pyralis)”, the “inhibition of target Luc+ expression (Luc+/Renilla Luc ratio)” value (Luc+ expression [1]; 0.5 μg co-injected siRNA) was 73%, the “inhibition of target Luc+ expression (Luc+/Renilla Luc ratio)” value (Luc+ expression [1]; 5.0 μg co-injected siRNA) was 82% and the “inhibition of Luc+ expression in liver” value (Luc+ expression [1]; Example 3: 5.0 μg siRNA, compared to siRNA-ori) was 93%. For the same substance, the “inhibition of firefly luciferase+ activity, heart” value (Luc+ expression [1]; [4]) was 74%, the “inhibition of firefly luciferase+ activity, kidney” value (Luc+ expression [1]; [4]) was 87% and the “inhibition of firefly luciferase+ activity, liver” value (Luc+ expression [1]; [4]) was 95%. The “inhibition of firefly luciferase+ activity, lung” value (Luc+ expression [1]; [4]) was 81%, the “inhibition of firefly luciferase+ activity, pancreas” value (Luc+ expression [1]; [4]) was 92% and the “inhibition of firefly luciferase+ activity, spleen” value (Luc+ expression [1]; [4]) was 77%. The “inhibition of Luc+ expression in gastrocnemius” value (Luc+ expression [2]) was 92%, the “inhibition of Luc+ expression in quadriceps” value (Luc+ expression [2]) was 85% and the “inhibition of Luc+ activity” value (luc+ gene; 0.5 μg siRNA co-injected with 10 μg pMIR48, tail vein, vs 10 μg pMIR48 alone) was 69%. For the same substance, the “inhibition of Luc+ activity” value (luc+ gene; 5 μg siRNA co-injected with 10 μg pMIR48, tail vein) was 93% and the “inhibition of Luc+ expression in liver” value (Luc+ expression [3]) was 88%.

— patent publication US20050037989A1, “Inhibition of gene function by delivery of polynucleotide-based gene expression inhibitors to mammalian cells in vivo” (priority 2001, published 2005)
